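Values below derive from 48-hour exposures of cells grown in 96-well plates, with endpoints linearly interpolated between the two concentrations bracketing the appropriate inhibition level. Here, GI50 denotes the concentration required for 50% inhibition of growth.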 Calls of active or inactive are those of the source. No stated cut-off is given here; in the data, active = GI50 up to about 1.1 µM and inactive = higher.
Tests used:
Experiment in all cases: growth of human tumour cells (NCI), 48 h
[1] = test system: HOP-92
[2] = test system: SF-539
[3] = test system: LOX IMVI
[4] = test system: TK-10
[5] = test system: HOP-62
[6] = test system: SNB-75
[7] = test system: KM-20L2
[8] = test system: 786-0
[9] = test system: HCT-116
[10] = test system: SF-295
[11] = test system: CCRF-CEM
[12] = test system: COLO 205
[13] = test system: SW-620
[14] = test system: K562
[15] = test system: IGROV-1
[16] = test system: SF-268
[17] = test system: NCI-H23
[18] = test system: MOLT-4
[19] = test system: SNB-78
[20] = test system: SK-MEL-28
[21] = test system: OVCAR-3
[22] = test system: ACHN
[23] = test system: EKVX
[24] = test system: DLD-1
[25] = test system: A549
[26] = test system: U-251
[27] = test system: M14
[28] = test system: DMS-114
[29] = test system: RXF 631
[30] = test system: XF498
[31] = test system: HCT-15
[32] = test system: SR
[33] = test system: HCC 2998
[34] = test system: RXF 393
[35] = test system: OVCAR-8
[36] = test system: NCI-H460
[37] = test system: A498
[38] = test system: UACC-62
[39] = test system: HOP-18
[40] = test system: HL-60
[41] = test system: SNB-19
[42] = test system: RPMI-8226
[43] = test system: KM12
[44] = test system: CAKI-1
[45] = test system: NCI-H226
[46] = test system: LXFL 529
[47] = test system: UACC-257
[48] = test system: HT-29
[49] = test system: SK-MEL-5
[50] = test system: OVCAR-4
[51] = test system: M19-MEL
[52] = test system: Malme-3M
[53] = test system: SN12C
[54] = test system: OVCAR-5
[55] = test system: UO-31
[56] = test system: NCI-H522
[57] = test system: SK-OV-3
[58] = test system: SK-MEL-2
[59] = test system: DMS-273

With `COc1ccc(NC(=O)C2=CC(=O)c3ccc(O)cc3C2=O)c(OC)c1` the GI50 [1] was > 100 µM (inactive), the GI50 [2] was > 100 µM (inactive) and the GI50 [3] was > 100 µM (inactive). For the same compound, the GI50 [4] was > 100 µM (inactive), the GI50 [5] was > 100 µM (inactive) and the GI50 [6] was > 100 µM (inactive). For the same compound, the GI50 [7] was > 100 µM (inactive), the GI50 [8] was > 100 µM (inactive) and the GI50 [9] was > 100 µM (inactive). The GI50 [10] was > 100 µM (inactive), the GI50 [11] was > 100 µM (inactive) and the GI50 [12] was > 100 µM (inactive). The GI50 [13] was > 100 µM (inactive), the GI50 [14] was > 100 µM (inactive) and the GI50 [15] was > 100 µM (inactive). The GI50 [16] was > 100 µM (inactive), the GI50 [17] was > 100 µM (inactive) and the GI50 [18] was > 100 µM (inactive). The GI50 [19] was > 100 µM (inactive), the GI50 [20] was > 100 µM (inactive) and the GI50 [21] was > 100 µM (inactive). For the same compound, the GI50 [22] was > 100 µM (inactive), the GI50 [23] was > 100 µM (inactive) and the GI50 [24] was > 100 µM (inactive). The GI50 [25] was > 100 µM (inactive), the GI50 [26] was > 100 µM (inactive) and the GI50 [27] was > 100 µM (inactive). For the same compound, the GI50 [28] was > 100 µM (inactive), the GI50 [29] was > 100 µM (inactive) and the GI50 [30] was > 100 µM (inactive). For the same compound, the GI50 [31] was over 100 µM, the GI50 [32] was > 100 µM (inactive) and the GI50 [33] was > 100 µM (inactive). For the same compound, the GI50 [34] was > 100 µM (inactive), the GI50 [35] was > 100 µM (inactive) and the GI50 [36] was > 100 µM (inactive). The GI50 [37] was > 100 µM (inactive), the GI50 [38] was > 100 µM (inactive) and the GI50 [39] was > 100 µM (inactive). The GI50 [40] was > 100 µM (inactive), the GI50 [41] was > 100 µM (inactive) and the GI50 [42] was > 100 µM (inactive). The GI50 [43] was > 100 µM (inactive), the GI50 [44] was > 100 µM (inactive) and the GI50 [45] was > 100 µM (inactive). For the same compound, the GI50 [46] was > 100 µM (inactive), the GI50 [47] was > 100 µM (inactive) and the GI50 [48] was > 100 µM (inactive). For the same compound, the GI50 [49] was > 100 µM (inactive), the GI50 [50] was > 100 µM (inactive) and the GI50 [51] was > 100 µM (inactive). For the same compound, the GI50 [52] was > 100 µM (inactive), the GI50 [53] was > 100 µM (inactive) and the GI50 [54] was > 100 µM (inactive).
`O=C(Nc1ccc(Sc2ccc(/N=N/c3c(O)c(S(=O)(=O)O)cc4cc(S(=O)(=O)O)ccc34)cc2)cc1)c1ccc(/N=N/c2c(O)ccc3c(S(=O)(=O)O)cc(S(=O)(=O)O)cc23)cc1` was tested, and the GI50 [1] was 78 µM (inactive), the GI50 [2] was 46.9 µM (inactive) and the GI50 [3] was 15.5 µM (inactive). The GI50 [4] was 60.8 µM (inactive), the GI50 [55] was 41.2 µM (inactive) and the GI50 [5] was 87.3 µM (inactive). For the same compound, the GI50 [6] was > 100 µM (inactive), the GI50 [7] was 58.7 µM (inactive) and the GI50 [8] was 37.6 µM (inactive). For the same compound, the GI50 [9] was 49.3 µM (inactive), the GI50 [10] was 62.7 µM (inactive) and the GI50 [11] was 24.7 µM (inactive). The GI50 [12] was 15.8 µM (inactive), the GI50 [13] was 38.5 µM (inactive) and the GI50 [56] was 13.4 µM (inactive). The GI50 [14] was 10.1 µM (inactive), the GI50 [15] was 32.7 µM (inactive) and the GI50 [16] was 41 µM (inactive). For the same compound, the GI50 [17] was 19 µM (inactive), the GI50 [18] was 12.8 µM (inactive) and the GI50 [19] was 36.4 µM (inactive). For the same compound, the GI50 [20] was 48.1 µM (inactive), the GI50 [21] was 19.8 µM (inactive) and the GI50 [57] was > 100 µM (inactive). For the same compound, the GI50 [22] was 29.4 µM (inactive), the GI50 [23] was 17.3 µM (inactive) and the GI50 [24] was 37.7 µM (inactive). The GI50 [25] was 28.4 µM (inactive), the GI50 [26] was 41.2 µM (inactive) and the GI50 [27] was 21.7 µM (inactive). For the same compound, the GI50 [29] was 41.3 µM (inactive), the GI50 [30] was 28.2 µM (inactive) and the GI50 [31] was 27.5 µM. The GI50 [32] was 21.6 µM (inactive), the GI50 [33] was > 100 µM (inactive) and the GI50 [34] was 50.6 µM (inactive). The GI50 [35] was 20.8 µM (inactive), the GI50 [36] was 28.1 µM (inactive) and the GI50 [37] was 26 µM (inactive). The GI50 [38] was 16.9 µM (inactive), the GI50 [39] was 33 µM (inactive) and the GI50 [58] was 27.9 µM (inactive). The GI50 [40] was 10.3 µM (inactive), the GI50 [59] was 25.9 µM (inactive) and the GI50 [41] was 41.1 µM (inactive). The GI50 [42] was 10.4 µM (inactive), the GI50 [43] was 39.9 µM (inactive) and the GI50 [44] was 43.8 µM (inactive). For the same compound, the GI50 [45] was > 100 µM (inactive), the GI50 [46] was 25.2 µM (inactive) and the GI50 [47] was 11.2 µM (inactive). For the same compound, the GI50 [48] was 42.1 µM (inactive), the GI50 [49] was 7.5 µM (inactive) and the GI50 [50] was 33.8 µM (inactive). For the same compound, the GI50 [51] was 16.6 µM (inactive), the GI50 [52] was 24.9 µM (inactive) and the GI50 [53] was 42.2 µM (inactive). The GI50 [54] was 33.4 µM (inactive).
